Experimental data from BindingDB's records for patent US20230293517 (Adorx Therapeutics, 2023).

Tests used:
Test in all cases: Adenosine Receptor Time-Resolved Fluorescence Resonance Energy Transfer (TRFRET) Binding Assay
Adenosine receptor A2b = biological target: T1, Adenosine receptor A2b (Homo sapiens, UniProt P29275)
T1 sequence (P29275 whole entry): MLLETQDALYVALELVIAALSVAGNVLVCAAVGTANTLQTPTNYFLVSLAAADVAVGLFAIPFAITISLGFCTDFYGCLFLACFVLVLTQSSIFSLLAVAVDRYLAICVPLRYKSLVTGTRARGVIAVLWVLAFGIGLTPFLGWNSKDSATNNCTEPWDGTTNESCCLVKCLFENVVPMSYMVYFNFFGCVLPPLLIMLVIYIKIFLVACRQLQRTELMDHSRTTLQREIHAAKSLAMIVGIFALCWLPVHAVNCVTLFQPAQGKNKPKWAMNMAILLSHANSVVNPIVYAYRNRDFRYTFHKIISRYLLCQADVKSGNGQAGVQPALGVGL
Experimental: (§1) All FRET binding experiments were conducted at room temperature in white 384-well plates, in assay binding buffer containing 1×LabMed (Cisbio, France), 100 μg/mL saponin, 1% DMSO and 0.02% pluronic acid. Binding of the fluorescently labelled Adenosine receptor antagonist XAC (CA200645, FRET acceptor) to terbium-labelled A1, A2a, A2b and A3 adenosine receptors (FRET donors) was detected by time-resolved FRET due to the close proximity of the donor and acceptor in a binding event. To investigate the ability of unlabelled test compounds to bind to Adenosine A1, A2a, A2b and A3 receptors, dose response curves were constructed that determined the ability of a range of concentrations to inhibit the binding of 30 nM CA200645 to the A2b receptor and 100 nM CA200645 to the A1, A2a, and A3 receptor. Serial dilution (1:3 dilutions) of test compounds in neat DMSO and transfer of a 400 nL sample of test compound into the assay plate was carried out using the Mosquito (TTP Labtech, UK). The compound samples were incubated for 2 hours at room temperature with a fixed concentration of CA200645 defined for each receptor (see above) and CHO cell membranes containing the human Adenosine A1 (0.5 μg/well), A2a (0.3 μg/well), A2b (1 μg/well) or A3 (1 μg/well) receptor in 40 μL of assay buffer. Total and non-specific binding of CA200645 was determined in the absence and presence of 10 μM XAC, respectively. Following 2 hours incubation, the level of CA200645 binding was detected on a Pherastar FSX (BMG Labtech, Germany) using standard TR-FRET settings. […] FRET ratios were obtained by multiplying the acceptor/donor ratio value by 10,000. Specific binding was determined by subtracting the non-specific binding FRET ratio from the total binding FRET ratio.

Adenosine receptor A3 = biological target: T2, Adenosine receptor A3 (Homo sapiens, UniProt P0DMS8)
T2 sequence (P0DMS8 whole entry): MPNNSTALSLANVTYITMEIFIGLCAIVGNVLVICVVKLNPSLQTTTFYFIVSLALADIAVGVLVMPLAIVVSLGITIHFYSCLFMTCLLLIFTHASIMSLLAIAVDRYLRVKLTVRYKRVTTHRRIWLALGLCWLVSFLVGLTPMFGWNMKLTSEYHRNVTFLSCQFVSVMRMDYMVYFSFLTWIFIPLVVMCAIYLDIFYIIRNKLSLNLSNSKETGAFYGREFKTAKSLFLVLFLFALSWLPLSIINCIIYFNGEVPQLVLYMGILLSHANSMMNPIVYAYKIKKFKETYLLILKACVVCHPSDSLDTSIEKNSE
Experimental: as §1

Adenosine receptor A2a = Adenosine receptor A2a (Homo sapiens, UniProt P29274)
Sequence of Adenosine receptor A2a (P29274 whole entry): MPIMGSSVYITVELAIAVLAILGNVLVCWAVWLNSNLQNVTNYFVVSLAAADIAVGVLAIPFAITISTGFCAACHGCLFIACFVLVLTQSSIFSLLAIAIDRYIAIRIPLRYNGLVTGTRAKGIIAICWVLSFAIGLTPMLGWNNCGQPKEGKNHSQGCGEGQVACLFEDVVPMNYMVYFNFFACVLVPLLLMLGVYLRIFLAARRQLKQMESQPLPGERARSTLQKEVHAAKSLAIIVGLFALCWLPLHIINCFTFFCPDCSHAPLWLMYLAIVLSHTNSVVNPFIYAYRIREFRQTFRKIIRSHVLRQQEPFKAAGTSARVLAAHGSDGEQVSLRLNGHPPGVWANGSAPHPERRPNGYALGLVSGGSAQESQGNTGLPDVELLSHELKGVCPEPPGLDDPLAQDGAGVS
Experimental: as §1

Adenosine receptor A1 = biological target: T3, Adenosine receptor A1 (Homo sapiens, UniProt P30542)
T3 sequence (P30542 whole entry): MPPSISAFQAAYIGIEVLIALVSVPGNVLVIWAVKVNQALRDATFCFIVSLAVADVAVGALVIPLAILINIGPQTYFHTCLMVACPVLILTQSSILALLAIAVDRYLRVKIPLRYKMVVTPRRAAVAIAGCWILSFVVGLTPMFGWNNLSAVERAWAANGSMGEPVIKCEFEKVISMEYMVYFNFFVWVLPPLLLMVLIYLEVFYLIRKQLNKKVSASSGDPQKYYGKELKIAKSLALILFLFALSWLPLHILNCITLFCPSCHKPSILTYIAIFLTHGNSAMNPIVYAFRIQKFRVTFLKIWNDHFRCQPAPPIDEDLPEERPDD
Experimental: as §1

Compound	Ki (Adenosine receptor A2b) [nM]	Ki (Adenosine receptor A3) [nM]	Ki (Adenosine receptor A2a) [nM]	Ki (Adenosine receptor A1) [nM]
Cc1cc(-c2sc(NC(=O)N3CCOC(C(N)=O)C3)nc2-c2cccc(C#N)c2)cc(C)n1 (configuration not stated) [US20230293517, Example 4.14]	2.4	200	2	67
Cc1cc(-c2sc(NC(=O)N3CCC4(CC3)CNC(=O)N4C)nc2-c2cccc(C#N)c2)cc(C)n1 [US20230293517, Example 6.51]	1.2	318	–	120
Cc1cc(-c2sc(NC(=O)N3CC4(CCOCC4)C3)nc2-c2cccc(C#N)c2)cc(C)n1 [US20230293517, Example 6.54]	1.9	268	0.38	53
Cc1cc(-c2sc(NC(=O)N3CC4(CNC(=O)C4)C3)nc2-c2cccc(C#N)c2)cc(C)n1 [US20230293517, Example 6.55]	2.4	273	0.6	86
Cc1cc(-c2sc(NC(=O)N3CCC4(CC3)CNC(=O)O4)nc2-c2cccc(C#N)c2)cc(C)n1 [US20230293517, Example 6.56]	1.2	368	0.59	75
Cc1cc(-c2sc(NC(=O)N3CC4(CNC(=O)N4)C3)nc2-c2cccc(C#N)c2)cc(C)n1 [US20230293517, Example 6.57]	1.3	212	0.88	32
Cc1cc(-c2sc(NC(=O)N3CCC4(CCCC(=O)N4)CC3)nc2-c2cccc(C#N)c2)cc(C)n1 [US20230293517, Example 6.58]	7.8	848	2.27	559
Cc1cc(-c2sc(NC(=O)N3CCC(C)(C#N)CC3)nc2-c2cccc(C#N)c2)c(F)c(C)n1 [US20230293517, Example 6.66]	0.6	1210	0.43	37
Cc1cc(-c2sc(NC(=O)N3CC(C)(O)C3)nc2-c2cccc(C#N)c2)c(F)c(C)n1 [US20230293517, Example 6.67]	1	201	2.06	22
Cc1cc(-c2sc(NC(=O)N3CC(C)(C#N)C3)nc2-c2cccc(C#N)c2)c(F)c(C)n1 [US20230293517, Example 6.68]	0.6	217	0.36	30
Cc1cc(-c2sc(NC(=O)N3CCC4(CC3)CNC4=O)nc2-c2cccc(C#N)c2)c(F)c(C)n1 [US20230293517, Example 6.69]	1.4	156	0.94	124
Cc1cc(-c2sc(NC(=O)N3CCC[C@H]3CO)nc2-c2cccc(C#N)c2)cc(C)n1 [US20230293517, Example 6.71]	4.2	62	3.45	110
Cc1cc(-c2sc(NC(=O)N3CC[C@@H]3C)nc2-c2cccc(C#N)c2)cc(C)n1 [US20230293517, Example 6.72]	1.2	94	1.12	3
Cc1cc(-c2sc(NC(=O)N3CC[C@H]3CO)nc2-c2cccc(C#N)c2)cc(C)n1 [US20230293517, Example 6.73]	3.7	165	2.51	92
Cc1cc(-c2sc(NC(=O)N3CCOC[C@@H]3CO)nc2-c2cccc(C#N)c2)cc(C)n1 [US20230293517, Example 6.76]	21.7	321	12.9	39
Cc1cc(-c2sc(NC(=O)N3CC4(COC4)C3)nc2-c2cccc(C#N)c2C)cc(C)n1 [US20230293517, Example 6.79]	6	537	1.5	177
Cc1cc(-c2sc(NC(=O)N3CC[C@@H]3CO)nc2-c2cccc(C#N)c2)cc(C)n1 [US20230293517, Example 6.91]	5.3	162	1.66	20
